This experiment has as its target T1, recombinant guanylate cyclase reporter cell line (Rattus norvegicus, UniProt P19686+P20595).
T1 construct: expressed in transfected cells
T1 sequence (P20595 1-619): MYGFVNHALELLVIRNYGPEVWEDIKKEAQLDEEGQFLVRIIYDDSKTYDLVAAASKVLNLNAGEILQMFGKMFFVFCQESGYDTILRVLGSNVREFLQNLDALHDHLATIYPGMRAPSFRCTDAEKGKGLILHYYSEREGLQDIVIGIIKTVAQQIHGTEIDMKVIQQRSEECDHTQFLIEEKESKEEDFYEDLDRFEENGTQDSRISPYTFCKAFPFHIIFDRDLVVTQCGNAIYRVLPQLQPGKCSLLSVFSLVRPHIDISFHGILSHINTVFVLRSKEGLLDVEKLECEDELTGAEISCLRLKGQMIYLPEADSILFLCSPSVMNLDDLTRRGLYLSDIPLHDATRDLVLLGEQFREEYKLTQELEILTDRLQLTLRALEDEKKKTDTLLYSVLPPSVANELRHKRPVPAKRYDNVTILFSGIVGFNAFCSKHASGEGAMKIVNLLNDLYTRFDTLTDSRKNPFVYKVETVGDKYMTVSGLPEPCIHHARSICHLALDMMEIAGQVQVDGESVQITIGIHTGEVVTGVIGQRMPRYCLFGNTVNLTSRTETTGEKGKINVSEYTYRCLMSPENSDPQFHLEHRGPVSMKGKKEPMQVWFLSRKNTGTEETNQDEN
T1 sequence (P19686 1-690): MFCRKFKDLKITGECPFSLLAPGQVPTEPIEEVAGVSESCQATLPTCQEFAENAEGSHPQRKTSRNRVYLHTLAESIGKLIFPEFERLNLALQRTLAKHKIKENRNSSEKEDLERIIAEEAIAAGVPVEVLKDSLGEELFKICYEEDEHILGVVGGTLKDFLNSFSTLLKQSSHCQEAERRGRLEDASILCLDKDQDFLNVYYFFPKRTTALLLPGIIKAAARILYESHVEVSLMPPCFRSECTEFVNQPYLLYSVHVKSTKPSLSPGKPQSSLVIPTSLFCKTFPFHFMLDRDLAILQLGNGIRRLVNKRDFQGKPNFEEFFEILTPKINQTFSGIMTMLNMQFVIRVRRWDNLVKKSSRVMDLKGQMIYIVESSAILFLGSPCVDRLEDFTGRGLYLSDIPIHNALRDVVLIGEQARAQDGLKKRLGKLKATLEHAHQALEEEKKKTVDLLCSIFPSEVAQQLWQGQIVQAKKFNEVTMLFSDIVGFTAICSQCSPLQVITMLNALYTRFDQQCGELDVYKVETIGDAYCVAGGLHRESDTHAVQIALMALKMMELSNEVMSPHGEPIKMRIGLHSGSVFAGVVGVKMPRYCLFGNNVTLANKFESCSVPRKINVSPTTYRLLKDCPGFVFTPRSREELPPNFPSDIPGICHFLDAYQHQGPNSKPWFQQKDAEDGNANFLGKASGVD
The experiment is described as follows: Action on recombinant guanylate cyclase reporter cell line. Format: cell-based. Conditions: in some cases mean values obtained from individual determinations. In a few lines:
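Cell-based reporter assay with recombinant guanylate cyclase expressed in a reporter cell line, per a published method. Activity reported as minimal effective concentration (MEC), in some cases as the mean of individual determinations.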
In the case of `CC[C@H](CO)NC(=O)c1c(C)nc2c(OCc3c(F)cccc3F)cccn12` [Example 43, 8-[(2,6-Difluorobenzyl)oxy]-N-[(2R)-1-hydroxybutan-2-yl]-2-methylimidazo[1,2-a]pyridine-3-carboxamide], the “MEC (minimal effective concentration)” value is 0.16 µM.
Regarding `Cc1cc(OCc2c(F)cncc2F)c2nc(C)c(C(=O)NC(CCC(F)(F)C(F)(F)F)C(C)(C)O)n2c1` (single isomer, unassigned; ent-8) [Example 193, ent-8-[(3,5-difluoropyridine-4-yl)methoxy]-2,6-dimethyl-N-(6,6,7,7,7-pentafluoro-2-hydroxy-2-methylheptan-3-yl)imidazo[1,2-a]pyridine-3-carboxamide (enantiomer A)], the “MEC (minimal effective concentration)” value worked out at 1 µM.
As for `Cc1nc2c(OCc3c(F)cccc3F)cccn2c1C(=O)N[C@@H](CO)C(C)C` [Example 29], the figure is 0.1 µM.
As for `Cc1nc2c(OCc3c(F)cccc3F)cccn2c1C(=O)NC(CCCC(F)(F)F)C(C)(C)O` (single isomer, unassigned; ent-8) [Example 156, ent-8-[(2,6-Difluorobenzyl)oxy]-2-methyl-N-(7,7,7-trifluoro-2-hydroxy-2-methylheptan-3-yl)-imidazo[1,2-a]pyridine-3-carboxamide], the “MEC (minimal effective concentration)” value was found to be 0.03 µM.
On to `CCOCC(CO)NC(=O)c1c(C)nc2c(OCc3c(F)cccc3F)cccn12` (single isomer, unassigned; ent-8) [Example 161, ent-8-[(2,6-Difluorobenzyl)oxy]-N-(1-ethoxy-3-hydroxypropan-2-yl)-2-methylimidazo[1,2-a]-pyridine-3-carboxamide (enantiomer A)], for which the “MEC (minimal effective concentration)” value is 1.0 µM.
As for `Cc1cc(OCc2ncccc2F)c2nc(C)c(C(=O)NC(CCCC(F)(F)C(F)(F)F)C(C)(C)O)n2c1` (single isomer, unassigned; ent-8) [Example 191, ent-8-[(3-fluoropyridin-2-yl)methoxy]-2,6-dimethyl-N-(7,7,8,8,8-pentafluoro-2-hydroxy-2-methyloctan-3-yl)imidazo[1,2-a]pyridine-3-carboxamide (enantiomer A)], the figure is 3 µM; as for `COC(=O)[C@H](CO)NC(=O)c1c(C)nc2c(OCc3c(F)cccc3F)cccn12` [Example 164, Methyl N-({8-[(2,6-difluorobenzyl)oxy]-2-methylimidazo[1,2-a]pyridin-3-yl}carbonyl)-L-serinate], 0.2 µM; as for `Cc1nc2c(OCc3c(F)cccc3F)cccn2c1C(=O)NC(CO)COCC(C)C` (racemic) [Example 163, rac-8-[(2,6-Difluorobenzyl)oxy]-N-(1-hydroxy-3-isobutoxypropan-2-yl)-2-methylimidazo[1,2-a]-pyridine-3-carboxamide], 1.0 µM.
Turning to `Cc1nc2c(OCc3c(F)cccc3F)cccn2c1C(=O)NC(CO)CCCC(F)(F)F` (racemic) [Example 114, rac-8-[(2,6-difluorobenzyl)oxy]-2-methyl-N-(6,6,6-trifluoro-1-hydroxyhexan-2-yl)imidazo[1,2-a]pyridine-3-carboxamide], the “MEC (minimal effective concentration)” value was determined as 0.03 µM.
In the case of `[2H]C([2H])(Oc1cccn2c(C(=O)N[C@@H](CO)CCCC)c(C)nc12)c1c(F)cccc1F` [Example 115, 8-{[(2,6-difluorophenyl)(^2H2)methyl]oxy}-N-[(2R)-1-hydroxyhexan-2-yl]-2-methylimidazo[1,2-a]pyridine-3-carboxamide], the “MEC (minimal effective concentration)” value worked out at 0.01 µM.
Regarding `CCCC[C@@H](NC(=O)c1c(C)nc2c(OCc3c(F)cccc3F)cccn12)C(C)(C)O` [Example 147, 8-[(2,6-Difluorobenzyl)oxy]-N-[(3R)-2-hydroxy-2-methylheptan-3-yl]-2-methylimidazo[1,2-a]-pyridine-3-carboxamide], the “MEC (minimal effective concentration)” value was 0.1 µM.
Regarding `Cc1nc2c(OCc3c(Cl)cccc3Cl)cccn2c1C(=O)NC(CO)CO` [Example 53, 8-[(2,6-dichlorobenzyl)oxy]-N-(1,3-dihydroxypropan-2-yl)-2-methylimidazo[1,2-a]-pyridine-3-carboxamide], the “MEC (minimal effective concentration)” value was 10 µM.
`Cc1nc2c(OCc3ncccc3F)cccn2c1C(=O)NC(CCCC(F)(F)F)C(C)(C)O` (racemic) [Example 179, rac-8-[(3-fluoropyridin-2-yl)methoxy]-2-methyl-N-(7,7,7-trifluoro-2-hydroxy-2-methylheptan-3-yl)imidazo(1,2-a]pyridine-3-carboxamide]: the “MEC (minimal effective concentration)” value came to 1 µM.
Under `CCCC[C@H](CO)NC(=O)c1c(C)nc2c(OCc3c(F)c(F)cc(F)c3F)cccn12` [Example 7] stands 0.3 µM; under `Cc1nc2c(OCc3c(F)cccc3F)cccn2c1C(=O)NC[C@H](O)c1ccccc1` [Example 33], 0.3 µM.
Regarding `Cc1nc2c(OCC3CCCCC3)cccn2c1C(=O)N[C@H]1CCC[C@@H]1O` (racemic) [Example 71, (rac)-8-(cyclohexylmethoxy)-N-[trans-2-hydroxycyclopentyl]-2-methylimidazo[1,2-a]-pyridine-3-carboxamide], the “MEC (minimal effective concentration)” value worked out at 0.1 µM.
Consider `CCCC[C@@H](NC(=O)c1c(C)nc2c(OCc3c(F)cccc3F)cccn12)C(O)C(F)(F)F` (stereo partly drawn) [Example 141, 8-[(2,6-Difluorobenzyl)oxy]-2-methyl-N-[(3R)-1,1,1-trifluoro-2-hydroxyheptan-3-yl]imidazo[1,2-a]pyridine-3-carboxamide], for which the “MEC (minimal effective concentration)” value worked out at 0.1 µM.
As for `Cc1nc2c(OCC3CCCCC3)cccn2c1C(=O)N[C@@H]1CCC[C@@H]1O` (relative stereo) [Example 81, 8-(cyclohexylmethoxy)-N-[cis-2-hydroxycyclopentyl]-2-methylimidazo[1,2-a]-pyridine-3-carboxamide], the figure is 0.65 µM.
On to `Cc1cc(OCc2ncccc2F)c2nc(C)c(C(=O)NC(CC(F)(F)F)C(C)(C)O)n2c1` (racemic) [Example 184, rac-8-[(3-fluoropyridin-2-yl)methoxy]-2,6-dimethyl-N-(1,1,1-trifluoro-4-hydroxy-4-methylpentan-3-yl)imidazo[1,2-a]pyridine-3-carboxamide (racemate)], for which the “MEC (minimal effective concentration)” value turned out to be 1 µM.
Under `Cc1nc2c(OCC3CCCCC3)cccn2c1C(=O)NC(CO)COC(C)(C)C` (stereo not drawn) [Example 94, N-(1-tert-butoxy-3-hydroxypropan-2-yl)-8-(cyclohexylmethoxy)-2-methylimidazo[1,2-a]-pyridine-3-carboxamide] stands 3.0 µM.
Under `Cc1cc(OCCC(C(F)(F)F)C(F)(F)F)c2nc(C)c(C(=O)NCC(O)c3ccc(Cl)cc3)n2c1` (racemic) [Example 175, rac-N-[2-(4-chlorophenyl)-2-hydroxyethyl]-2,6-dimethyl-8-[4,4,4-trifluoro-3-(trifluoromethyl)butoxy]imidazo[1,2-a]pyridine-3-carboxamide] stands 3.0 µM.

Values taken from patent US8946215B2, “Hydroxy-substituted imidazo[1,2-a]pyridinecarboxamides and their use” (Bayer Pharma Aktiengesellschaft, priority 2012, dated 2015).
